Assay results as given in ChEMBL document CHEMBL1201862, “PubChem BioAssay data set” (2004).
Calls of active or inactive are those of the source.

Columns and labels:
Caspase-7 = Caspase-7 (Homo sapiens, UniProt P55210); experiment: caspase-7 enzyme inhibition, selectivity check – biochemical, DEVD-R110 fluorescence, cherry-pick, selectivity assay for caspase-6 inhibitor project, dose response (AID 743295); type: functional
[1] = biological target: T1, Sentrin-specific protease 8 (Homo sapiens, UniProt Q96LD8); type: functional
T1 sequence (Q96LD8 whole entry): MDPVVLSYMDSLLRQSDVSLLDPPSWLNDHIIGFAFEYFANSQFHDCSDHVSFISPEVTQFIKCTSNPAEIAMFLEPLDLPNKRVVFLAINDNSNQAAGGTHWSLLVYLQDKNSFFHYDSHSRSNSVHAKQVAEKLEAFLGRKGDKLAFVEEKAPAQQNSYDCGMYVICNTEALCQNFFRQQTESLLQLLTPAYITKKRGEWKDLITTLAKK

Caspase-3 = biological target: T2, Caspase-3 (Homo sapiens, UniProt P42574); experiment: human caspase-3 protease activity blockade – biochemical, fluorescence, cherry-picked samples, selectivity assay for caspase-6 allosteric inhibitor project, dose response (AID 743291)
T2 sequence (P42574 whole entry): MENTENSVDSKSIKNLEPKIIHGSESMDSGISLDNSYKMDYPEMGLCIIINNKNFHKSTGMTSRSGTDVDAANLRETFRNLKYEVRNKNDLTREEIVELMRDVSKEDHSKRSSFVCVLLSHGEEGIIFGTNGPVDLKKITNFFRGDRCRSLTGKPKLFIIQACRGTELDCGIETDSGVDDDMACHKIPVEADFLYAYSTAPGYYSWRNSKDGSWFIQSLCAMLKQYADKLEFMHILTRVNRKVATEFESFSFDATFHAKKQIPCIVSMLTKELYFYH

[2] = biological target: T1, Sentrin-specific protease 8; type: functional; remark: listed apart in the source
Caspase-8 = Caspase-8 (Homo sapiens, UniProt Q14790); experiment: inhibitors of purified CASP8 protease – biochemical, Z-IETD-R110 fluorescence, cherry-picked samples, selectivity assay for caspase-6 inhibitor project, dose response (AID 743294)
Caspase-9 = Caspase-9 (Homo sapiens, UniProt P55211); experiment: inhibitors of purified CASP9 protease – biochemical, fluorescence, plate reader, cherry-picked samples, selectivity assay for caspase-6 inhibitor project, dose response (AID 743293)
Caspase-6 = biological target: T3, Caspase-6 (Homo sapiens, UniProt P55212); experiment: inhibition of CASP6 peptide cleavage – biochemical, VEID-R110 fluorescence, cherry-pick, dose response (AID 720632)
T3 sequence (P55212 whole entry): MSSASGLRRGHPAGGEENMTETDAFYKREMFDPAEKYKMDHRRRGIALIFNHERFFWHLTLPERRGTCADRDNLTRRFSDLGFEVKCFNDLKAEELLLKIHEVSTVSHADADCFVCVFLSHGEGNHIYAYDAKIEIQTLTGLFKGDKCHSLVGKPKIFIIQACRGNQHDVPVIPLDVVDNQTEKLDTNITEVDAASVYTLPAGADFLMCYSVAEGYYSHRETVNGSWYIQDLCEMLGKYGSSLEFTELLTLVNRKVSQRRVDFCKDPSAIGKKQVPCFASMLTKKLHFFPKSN

Kallikrein-7 = Kallikrein-7 (Homo sapiens, UniProt P49862); experiment: Fluorescence Intensity-based biochemical primary high throughput dose response assay to identify activators of kallikrein-7 (K7) zymogen.
cells [3] = details: HEK293;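 note: cells exposed to compound for 48 hours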
cells [4] = details: A549
cells [5] = experiment: cells
[6] = viability loss in HepG2 liver cells – cell-based, ATP luminescence, cherry-pick, set 6, cytotoxicity control, dose response (AID 1053125); type: functional
[7] = HIV-1 AD8 envelope cell-cell fusion blockers – cherry-pick, dose response (AID 652062); type: functional, cell-based;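 note: luciferase signal from cell-cell fusion driven by HIV-1 clade B AD8 Env; potency is for inhibitors of fusion seen as a drop in luminescence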
cells [8] = type: functional, cell-based; details: HEK-CNG
[9] = inhibition of Env-driven cell fusion – HIV entry, plate reader, dry powder, dose response (AID 687023); type: functional, cell-based
[10] = blockers of HIV-1 ZM109 envelope-driven cell-cell fusion – HeLa effector, CEM target cells, luciferase, cherry-pick, dose response (AID 652058); type: functional, cell-based;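 note: luciferase signal from HIV-1 Env mediated cell-cell fusion of effector and target cells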
[11] = viability loss in CEM21 cells – cell-based, plate reader, dry powder, cytotoxicity control, dose response (AID 687026); type: functional
[12] = blockers of HIV-1 envelope-mediated cell-cell fusion – cherry-pick, dose response (AID 652057); type: functional, cell-based
Estrogen receptor beta = Estrogen receptor beta (Homo sapiens, UniProt Q92731);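 note: recombinant ER-beta bound to coactivator SRC1 peptide in presence of estradiol agonist; inhibitors block coactivator peptide binding and lower the FRET signal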
Galanin receptor type 3 = Galanin receptor type 3 (Homo sapiens, UniProt O60755); experiment: Fluorescence-based cell-based primary high throughput dose response assay to identify antagonists of the Galanin Receptor 3 (GalR3).; type: functional
[13] = potency of ADAM10 substrate cleavage blockers – biochemical, QFRET, dose response (AID 743254);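 note: ADAM10 enzyme with the DM2 quenched FRET peptide as substrate; EDANS fluorescence gain as the protease cuts the substrate; inhibitor potency against ADAM10 proteolytic activity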
[14] = biological target: Disintegrin and metalloproteinase domain-containing protein 17 (Homo sapiens, UniProt P78536); experiment: inhibition of ADAM17 substrate cleavage – biochemical, quenched FRET substrate, counter-screen for ADAM10 exosite inhibitor project, dose response (AID 743253)
[15] = viability loss in A549 lung cells – cell-based, 24 h, CellTiter-Glo luminescence, cherry-picks, cytotoxicity control, dose response (AID 1053115); type: functional; details: A549, 24 h
Paired box protein Pax-8 = Paired box protein Pax-8 (Homo sapiens, UniProt Q06710); experiment: PAX8 transcriptional activity inhibition in RMG-I – RMG-I cells, luciferase, cherry-pick, dose response (AID 687027); type: functional, cell-based;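 note: luciferase reporter driven by Pax8 target thyroperoxidase promoter measured by SteadyGlo luminescence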
HEK293 = experiment: viability loss in HEK293T cells – cell-based, ATP luminescence, cherry-pick samples, cytotoxicity control, dose response (AID 687005); type: functional; details: Homo sapiens;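 note: cells exposed to compound for 48 hours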
[16] = HEK293 Cytotoxicity Assay Measured in Cell-Based System Using Plate Reader - 7071-01_Inhibitor_Dose_CherryPick_Activity_Set2.; type: functional
[17] = inhibitors of non-replicating M. tuberculosis, dose response, luciferase, dry powder (AID 651619); type: functional; details: Mycobacterium tuberculosis
[18] = inhibitors of non-replicating M. tuberculosis, dose response, luciferase, dry powder (AID 651620); type: functional; details: Mycobacterium tuberculosis
[19] = viability of BHK-21 cells – cell-based, secondary screen, cytotoxicity control for flavivirus guanylyltransferase probe project (AID 624078); type: functional

Chain of Estrogen receptor beta (Q92731 whole entry): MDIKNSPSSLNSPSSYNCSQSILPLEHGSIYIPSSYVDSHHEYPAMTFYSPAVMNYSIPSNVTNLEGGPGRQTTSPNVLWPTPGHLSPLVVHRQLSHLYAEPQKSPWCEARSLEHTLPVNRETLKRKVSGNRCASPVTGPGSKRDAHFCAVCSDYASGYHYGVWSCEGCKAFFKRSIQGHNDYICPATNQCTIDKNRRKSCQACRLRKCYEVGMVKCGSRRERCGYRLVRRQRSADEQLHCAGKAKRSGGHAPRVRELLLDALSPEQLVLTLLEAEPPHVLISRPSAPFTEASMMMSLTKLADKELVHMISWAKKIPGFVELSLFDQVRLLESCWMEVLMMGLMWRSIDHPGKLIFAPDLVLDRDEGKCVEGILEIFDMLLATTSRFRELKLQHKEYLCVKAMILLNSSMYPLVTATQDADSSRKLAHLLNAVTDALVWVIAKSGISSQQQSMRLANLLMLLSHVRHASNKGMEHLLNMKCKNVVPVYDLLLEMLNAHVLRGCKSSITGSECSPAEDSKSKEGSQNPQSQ
Chain of Paired box protein Pax-8 (Q06710 whole entry): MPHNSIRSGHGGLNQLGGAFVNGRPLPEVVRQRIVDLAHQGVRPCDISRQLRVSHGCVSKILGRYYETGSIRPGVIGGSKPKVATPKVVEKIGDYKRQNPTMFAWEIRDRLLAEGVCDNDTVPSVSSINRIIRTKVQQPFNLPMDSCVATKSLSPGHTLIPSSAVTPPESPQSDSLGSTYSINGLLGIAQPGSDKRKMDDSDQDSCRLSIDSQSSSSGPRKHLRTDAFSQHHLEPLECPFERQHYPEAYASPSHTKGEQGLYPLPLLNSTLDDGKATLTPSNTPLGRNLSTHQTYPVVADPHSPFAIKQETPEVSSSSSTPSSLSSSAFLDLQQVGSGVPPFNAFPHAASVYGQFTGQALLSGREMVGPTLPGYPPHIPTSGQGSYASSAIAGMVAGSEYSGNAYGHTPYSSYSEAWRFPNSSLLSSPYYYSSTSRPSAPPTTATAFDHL
Chain of Disintegrin and metalloproteinase domain-containing protein 17 (P78536 whole entry, the tested form may be a part): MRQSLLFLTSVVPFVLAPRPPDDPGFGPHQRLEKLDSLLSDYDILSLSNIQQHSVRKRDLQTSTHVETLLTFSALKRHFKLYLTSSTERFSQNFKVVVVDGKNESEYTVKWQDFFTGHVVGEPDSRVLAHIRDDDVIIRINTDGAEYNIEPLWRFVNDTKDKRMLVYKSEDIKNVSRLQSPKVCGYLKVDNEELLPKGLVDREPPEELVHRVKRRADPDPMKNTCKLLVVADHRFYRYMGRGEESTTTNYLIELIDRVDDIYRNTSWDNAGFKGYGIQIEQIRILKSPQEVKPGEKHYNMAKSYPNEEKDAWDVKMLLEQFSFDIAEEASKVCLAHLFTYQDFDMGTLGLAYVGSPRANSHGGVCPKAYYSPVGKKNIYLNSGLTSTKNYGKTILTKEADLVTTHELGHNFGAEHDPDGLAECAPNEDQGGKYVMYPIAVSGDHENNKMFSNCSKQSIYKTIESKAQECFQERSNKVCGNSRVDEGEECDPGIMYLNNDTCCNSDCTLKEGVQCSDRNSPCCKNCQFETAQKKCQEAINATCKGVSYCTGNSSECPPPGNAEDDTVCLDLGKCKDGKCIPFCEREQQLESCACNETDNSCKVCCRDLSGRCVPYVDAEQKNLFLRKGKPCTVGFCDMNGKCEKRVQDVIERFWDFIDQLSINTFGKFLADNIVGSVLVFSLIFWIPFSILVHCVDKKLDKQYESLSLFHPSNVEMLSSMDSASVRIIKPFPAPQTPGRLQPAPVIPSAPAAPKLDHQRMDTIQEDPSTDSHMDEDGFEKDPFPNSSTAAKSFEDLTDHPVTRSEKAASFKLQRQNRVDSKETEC
Chain of Kallikrein-7 (P49862 whole entry): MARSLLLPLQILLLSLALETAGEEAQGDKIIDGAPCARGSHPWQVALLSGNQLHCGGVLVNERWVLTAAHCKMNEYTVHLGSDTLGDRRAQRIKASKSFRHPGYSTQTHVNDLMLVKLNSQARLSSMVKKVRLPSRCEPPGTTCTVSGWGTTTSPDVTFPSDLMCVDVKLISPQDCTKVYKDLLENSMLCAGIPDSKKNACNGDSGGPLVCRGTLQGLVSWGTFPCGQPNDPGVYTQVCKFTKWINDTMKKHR
Chain of Caspase-7 (P55210 24-198 limits assumed): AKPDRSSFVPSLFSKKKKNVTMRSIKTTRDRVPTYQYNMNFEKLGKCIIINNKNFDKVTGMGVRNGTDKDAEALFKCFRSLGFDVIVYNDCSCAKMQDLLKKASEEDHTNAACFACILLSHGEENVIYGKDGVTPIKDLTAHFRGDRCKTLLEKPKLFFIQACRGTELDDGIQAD
Chain of Caspase-7 (P55210 207-303 limits assumed): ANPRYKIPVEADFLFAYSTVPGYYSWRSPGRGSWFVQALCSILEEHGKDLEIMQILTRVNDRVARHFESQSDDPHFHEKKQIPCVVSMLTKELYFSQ
Chain of Caspase-8 (Q14790 217-374 limits assumed): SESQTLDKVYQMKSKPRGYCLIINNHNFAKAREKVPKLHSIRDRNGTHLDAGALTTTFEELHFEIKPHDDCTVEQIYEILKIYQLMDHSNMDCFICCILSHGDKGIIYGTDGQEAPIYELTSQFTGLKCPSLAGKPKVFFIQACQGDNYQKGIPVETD
Chain of Caspase-8 (Q14790 385-479 limits assumed): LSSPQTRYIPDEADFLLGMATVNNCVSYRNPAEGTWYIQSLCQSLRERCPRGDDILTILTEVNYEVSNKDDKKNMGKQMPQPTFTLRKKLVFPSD
Chain of Galanin receptor type 3 (O60755 whole entry): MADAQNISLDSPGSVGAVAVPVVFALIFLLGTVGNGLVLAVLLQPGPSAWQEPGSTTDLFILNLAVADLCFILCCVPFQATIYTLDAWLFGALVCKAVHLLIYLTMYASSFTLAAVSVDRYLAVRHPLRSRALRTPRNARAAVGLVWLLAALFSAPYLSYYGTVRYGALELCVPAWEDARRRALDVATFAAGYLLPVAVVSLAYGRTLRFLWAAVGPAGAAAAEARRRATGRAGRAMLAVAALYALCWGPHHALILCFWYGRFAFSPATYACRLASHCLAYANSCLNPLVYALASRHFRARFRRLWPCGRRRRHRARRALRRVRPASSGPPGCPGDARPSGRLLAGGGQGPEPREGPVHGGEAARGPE
Chain of Caspase-9 (P55211 1-315 limits assumed): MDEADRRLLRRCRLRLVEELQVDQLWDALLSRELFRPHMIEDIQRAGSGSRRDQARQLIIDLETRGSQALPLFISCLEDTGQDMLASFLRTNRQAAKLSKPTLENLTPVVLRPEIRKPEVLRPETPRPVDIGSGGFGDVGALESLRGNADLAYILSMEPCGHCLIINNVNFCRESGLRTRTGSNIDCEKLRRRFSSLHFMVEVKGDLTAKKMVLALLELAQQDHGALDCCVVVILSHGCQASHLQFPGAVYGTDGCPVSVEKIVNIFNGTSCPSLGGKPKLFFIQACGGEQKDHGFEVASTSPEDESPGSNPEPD
Chain of Caspase-9 (P55211 331-416 limits assumed): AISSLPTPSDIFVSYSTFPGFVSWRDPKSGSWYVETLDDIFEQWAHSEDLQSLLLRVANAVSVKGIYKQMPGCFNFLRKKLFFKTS

Question: Which results are given for `O=C1Cc2ccccc2C(=O)N1`?
Answer: AC50 (Caspase-7): 1.32 µM (active); IC50 [1]: 0.0408 µM (active); AC50 (Caspase-3): 0.74 µM (active); IC50 [2]: 0.702 µM (active); AC50 (Caspase-8): 1.09 µM (active); AC50 (Caspase-9): 1.34 µM (active); AC50 (Caspase-6): 1.22 µM (active)

Question: Which EC50 (Kallikrein-7) does the source give for `COc1ccc(OC)c(/C=C/C(=O)NCCc2nc3ccccc3[nH]2)c1` here?
Answer: > 69.5 µM (inactive)

Question: For `CN1CCc2c(sc(NC(=O)c3cc(Cl)sc3Cl)c2C(N)=O)C1`, which AC50 (cells [3]) is on record?
Answer: 33.7 µM (active)

Question: And the AC50 (cells [4])?
Answer: > 52 µM (inactive)

Question: What about the AC50 (cells [5]) of the same compound?
Answer: 19.9 µM (active)

Question: And the AC50 [6]?
Answer: > 52 µM (inactive)

Question: For `Cc1oc(-c2ccc(Cl)cc2)nc1CN1CCCC(C(=O)NCc2cccnc2)C1` (centres undefined), which AC50 [7] is on record?
Answer: 4.75 µM (active)

Question: What about the EC50 (cells [8]) of the same compound?
Answer: > 29.9 µM (inactive)

Question: And the AC50 [9]?
Answer: 3.91 µM (active)

Question: And the AC50 [10]?
Answer: < 0.26 µM (active)

Question: And the AC50 [11]?
Answer: > 70 µM (inactive)

Question: What about the AC50 [12] of the same compound?
Answer: 4.1 µM (active)

Question: And the IC50 (Estrogen receptor beta)?
Answer: > 50 µM (not active)

Question: And the IC50 (Galanin receptor type 3)?
Answer: 2 µM (active)

Question: Which IC50 [13] does the source give for `Cc1cccc(C)c1-c1ccc(CN2C(CC(C)C)C(=O)N(Cc3cn(CCO)nn3)CCS2(=O)=O)cc1` (centres undefined) here?
Answer: 12.3 µM (inactive)

Question: What about the IC50 [14] of the same compound?
Answer: > 69.5 µM (inactive)

Question: Which AC50 [15] does the source give for `Cc1ccc(S(=O)(=O)Nc2cccc3c2O[C@@H](CN(C)C(=O)Nc2ccc(C(F)(F)F)cc2)[C@@H](C)CN([C@H](C)CO)C3=O)cc1` here?
Answer: 42.6 µM (active)

Question: And the AC50 (Paired box protein Pax-8)?
Answer: 12.6 µM (active)

Question: Which AC50 (HEK293) does the source give for `Cc1ccc(S(=O)(=O)Nc2ccc3c(c2)C(=O)N([C@@H](C)CO)C[C@@H](C)[C@@H](CN(C)S(=O)(=O)c2ccc(Cl)cc2)OCCCC[C@H](C)O3)cc1` here?
Answer: 24.4 µM (active)

Question: What about the AC50 [16] of the same compound?
Answer: 24.4 µM (active)

Question: Which results are given for `c1ccc(CSc2nnc(-c3cccnc3)o2)nc1`?
Answer: IC90 [17]: 16 µM (active); IC90 [18]: 16 µM (active)

Question: For `O=[N+]([O-])c1cccc(S(=O)(=O)Nc2cc(SCc3ccccc3)c(O)c3ccccc23)c1`, which CC50 [19] is on record?
Answer: 14.9 µM (active)
